Data as given in patent publication US8686113B2 (priority 2009, dated 2014).
In brackets after ≈: the same amount, converted by molar mass. Non-standard residues stand in square brackets, D forms with d. Residues, ends and D or L forms follow the SMILES beside them. No end group written: not given here. Hyp = O=C(O)[C@@H]1C[C@@H](O)CN1; Tle = CC(C)(C)[C@H](N)C(=O)O; Orn = NCCC[C@H](N)C(=O)O

Key:
[1] = test system: M. luteus 10240; test: Growth inhibition assay (microdilution MIC); assay type: cell-based, Micrococcus luteus
Method in brief: (§1)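 Broth microdilution in 1% TSB with twofold peptide series, final 128 μg/mL to 62.5 ng/mL, against 5×10^6 bacteria/mL stock suspension added 1:1. Incubated 20 h at 37 °C, growth read by absorbance at 595 nm; MIC is the lowest concentration with no growth, determined in triplicate.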

[2] = Stability against bacterial proteases in E. coli lysate; assay type: in vitro ADME; settings: E. coli BL21 A1 lysate (bacterial proteases), pH 7.4; E. coli lysate with 0.5 mg/mL protein concentration; read-out: percentage printed under half-life >240 min (peptide remaining)
Method in brief: (§2)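 Peptide (0.15 μg/mL) incubated at 37° C. in E. coli BL21 A1 sonicated lysate in PBS pH 7.4, Bradford-adjusted to 1.5 or 0.5 mg/mL protein. Samples at 0–360 min TCA-precipitated and neutralized. Intact peptide and fragments quantified by HPLC, identified by MALDI-TOF-MS.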

[3] = test system: bacterial proteases (E. coli BL21 A1 lysate); test: as above; assay type: in vitro ADME; settings: 37° C.
Method in brief: as §2

[4] = mouse, serum
Method: (§3) For this, the peptides and peptidomimetics were dissolved in water, mouse serum was added and the peptide concentration was adjusted to 75 μg/mL. While shaking continuously, the mixture was incubated at 37° C. After 0, 30, 60, 120, 240 and 360 minutes, in each case an aliquot was taken and mixed with 15% aqueous trichloroacetic acid (Carl Roth GmbH & Co. KG; Karlsruhe, Germany). After incubation on ice for a further 10 minutes, the precipitated serum proteins were centrifuged off (5 min, 13400 rpm, MiniSpin, Eppendorf AG, Hamburg, Germany). The supernatant was removed, neutralized with 1 mol/L aqueous sodium hydroxide solution (Fluke Chemie GmbH, Buchs, Switzerland) and stored at −20° C. until analysis.
(§4) The supernatants were analyzed by RP-HPLC with a linear acetonitrile gradient (Biosolve BV, Valkenswaard, The Netherlands) in the presence of 0.1% trifluoroacetic acid (TFA, UV-grade, Fluka Chemie GmbH, Buchs, Switzerland) as ion-pairing reagent. The fractions were co-crystallized with α-cyanohydroxycinnamic acid (Bruker Daltonik GmbH; Bremen, Germany) as matrix (5.3 mg/mL in 50% acetonitrile in 0.1% aqueous TFA) and were analyzed with a tandem mass spectrometer (MALDI-TOF/TOF-MS, 4700 Proteomics Analyzer; Applied Biosystems GmbH, Weiterstadt, Germany) in the positive-ion reflector mode. The proportion of intact peptides and their degradation products or metabolites could thus be identified and quantified at the individual time points. The control used was 25% aqueous mouse serum, which was analyzed in parallel for the same time intervals.

[5] = in vitro; settings: mouse, 100% mouse serum
Method: as §3, §4

[6] = test system: E. coli BL21 A1; assay type: cell-based, Escherichia coli; settings: 1% TSB, 20 h at 37° C.
Method in brief: as §1

[7] = test system: E. coli D31 J. Wilson; settings: ¼ Muller-Hinton medium
[8] = test system: K. pneumoniae 012-3131
[9] = test system: P. aeruginosa 39324
[10] = test system: P. mirabilis ATCC 7002; settings: ATCC 7002
[11] = test system: P. vulgaris ATCC 6896; settings: ATCC 6896
[12] = test system: S. saprophyticus 15305; settings: 15305
[13] = test system: S. typhimurium ATCC 700408
[14] = in vitro; settings: mouse, 25% aqueous mouse serum, Half-life in 25% mouse serum, 37° C., 75 μg/mL peptide
Method: as §3, §4

[15] = 25% aqueous mouse serum; settings: 37° C., up to 360 minutes

Molecule: CC(C)C[C@H](NC(=O)[C@H](Cc1ccc(O)cc1)NC(=O)[C@@H]1CCCN1C(=O)[C@@H]1CCCN1C(=O)[C@H](CCCCN)NC(=O)[C@H](CC(=O)O)NC(=O)[C@@H](N)C(C)C)C(=O)N1CCC[C@H]1C(=O)N[C@@H](CCCNC(=N)N)C(=O)N1CCC[C@H]1C(=O)N[C@@H](CCCNC(=N)N)C(=O)N1CCC[C@H]1C(=O)N1C[C@H](O)C[C@H]1C(=O)N[C@@H](CCCNC(=N)N)C(=O)N1C[C@H](O)C[C@H]1C(=O)N[C@H](C(=O)N[C@@H](Cc1ccc(O)cc1)C(=O)N[C@@H](CC(N)=O)C(=O)N[C@@H](CCCN)C(N)=O)C(C)(C)C [compound 110] (H-VDKPPYLPRPRP[Hyp]R[Hyp][Tle]YN[Orn]-NH2)
- MIC M. luteus 10240 ([1]; 10240, 20 h): 16 µg/mL (≈ 6.89 µM)
- remaining at 4 h, 0.15 μg/mL [2]: 90%
- Half-life in E. coli lysate ([3]; E. coli lysate with 0.5 mg/mL protein concentration): >4 h
- half-life [4]: > 8 h
- remaining at 8 h, 75 μg/mL [5]: 70%

Molecule: VDKPPYLPRPRPPRRIYNR-NH2 [SEQ ID NO. 18]
- MIC E. coli BL21 A1 [6]: 4 µg/mL
- MIC M. luteus 10240 ([1]; 1% TSB, 20 h at 37° C.): 8 µg/mL
- half-life at 0.15 μg/mL ([3]; E. coli, E. coli BL21 A1 lysate, pH 7.4, E. coli lysate with 0.5 mg/mL protein concentration): 1 h
- MIC E. coli D31 J. Wilson [7]: 2 µg/mL
- MIC K. pneumoniae 012-3131 [8]: 4 µg/mL
- MIC P. aeruginosa 39324 [9]: 4 µg/mL
- MIC P. mirabilis ATCC 7002 [10]: 128 µg/mL
- MIC P. vulgaris ATCC 6896 [11]: 128 µg/mL
- MIC S. saprophyticus 15305 [12]: 16 µg/mL
- MIC S. typhimurium ATCC 700408 [13]: 0.25 µg/mL
- half-life at 75 μg/mL [14]: 1 h

Molecule: VDKPPYLPRPRPPRRIYNR-OH
- cleaved bond [15]: Asn18-arginine19, first_seen
